Experimental findings from patent publication US11840686B2, “Modulation of prekallikrein (PKK) expression” (Ionis Pharmaceuticals, Inc., priority 2013, dated 2023) are described below.

The term % inhibition denotes the change of the read-out against control, counted positive when it falls.

Strand notation (5' to 3'): a small letter for the sugar, then the base; units joined by * are phosphorothioate-linked, units joined directly phosphodiester-linked; [ ] holds rarer units or linkages, { } end groups; capitals alone tell only the bases. e = 2'-O-(2-methoxyethyl) (MOE); k = constrained ethyl (cEt); [5mC] = 5-methylcytosine; d = 2'-deoxy (DNA)

For the first data set, the system named is human PKK mRNA. Briefly: Antisense inhibition of human PKK mRNA in HepaRG cells, 1,000 nM, MOE/deoxy/cEt oligonucleotides (Example 3). The note with it: HepaRG cells, electroporation with 1,000 nM antisense oligonucleotide, approx. 24 hours, PKK mRNA by RT-PCR (RTS3454), relative to untreated control cells; Table 26 experiment. Type of data set: cell-based. In a few lines:
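HepaRG cells at 20,000 per well electroporated with 1,000 nM 16-mer MOE/cEt/deoxy gapmers (phosphorothioate, 5-methylcytosine). After about 24 h, PKK mRNA measured by qRT-PCR with primer probe set RTS3454, normalized to RIBOGREEN total RNA. Reported as percent inhibition versus untreated cells.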
For “548270 (antisense e[5mC]*eT*kG*d[5mC]*dT*dG*dG*dT*dT*dT*dT*dA*dG*kA*k[5mC]*e[5mC]) [compound 548270]”, the “% inhibition” value was found to be 28%. The same measure, in the same setting: under “548271 (antisense eT*eT*k[5mC]*dA*d[5mC]*dT*dT*dA*d[5mC]*d[5mC]*dA*d[5mC]*dA*kG*kG*eA) [compound 548271]” stands 56%; under “548272 (antisense eG*eG*kT*dG*d[5mC]*d[5mC]*dA*d[5mC]*dT*dT*dG*d[5mC]*dT*kT*kG*eG) [compound 548272]”, 54%.

With “548273 (antisense eA*eA*kT*d[5mC]*dT*d[5mC]*d[5mC]*dA*d[5mC]*d[5mC]*d[5mC]*d[5mC]*d[5mC]*kG*kA*eA) [compound 548273]”, the “% inhibition” value turned out to be 5%. In the case of “548274 (antisense eT*eA*k[5mC]*d[5mC]*dT*dG*dA*d[5mC]*dA*dA*dG*dT*dG*kG*kT*e[5mC]) [compound 548274]”, the “% inhibition” value is 0%.

Turning to “548275 (antisense eG*eT*k[5mC]*d[5mC]*d[5mC]*dA*dA*dG*dA*d[5mC]*dA*dT*dT*k[5mC]*k[5mC]*eT) [compound 548275]”, the “% inhibition” value was 40%. On the same count and under the same terms, as for “548276 (antisense e[5mC]*eA*kG*dA*dG*dT*dG*dT*d[5mC]*dA*dT*d[5mC]*dT*kG*k[5mC]*eG) [compound 548276]”, the figure is 49%; as for “548277 (antisense eG*eG*kA*dT*dT*dG*dG*dA*d[5mC]*d[5mC]*d[5mC]*dA*dG*kA*k[5mC]*eA) [compound 548277]”, 57%. Same read-out and setting: as for “548279 (antisense e[5mC]*eA*k[5mC]*d[5mC]*dT*dA*dG*dA*dA*d[5mC]*dT*dA*dT*k[5mC]*k[5mC]*eA) [compound 548279]”, the figure is 39%; as for “548280 (antisense e[5mC]*eT*k[5mC]*d[5mC]*d[5mC]*dT*d[5mC]*dT*dG*dT*dA*dA*dT*kG*kA*eT) [compound 548280]”, 43%. The same measure, in the same setting: as for “548281 (antisense eG*eG*kT*dT*dG*dA*dG*dG*dG*dA*d[5mC]*dA*dG*kA*k[5mC]*eA) [compound 548281]”, the figure is 0%.

With “548282 (antisense eG*eT*kG*dG*dG*dT*dT*dT*dG*d[5mC]*dA*d[5mC]*dA*kT*kG*eG) [compound 548282]”, the “% inhibition” value is reported as 73%.

For “548283 (antisense eG*eG*k[5mC]*dT*dT*dA*dT*dG*d[5mC]*dT*d[5mC]*d[5mC]*dT*kT*k[5mC]*eT) [compound 548283]”, the “% inhibition” value was found to be 56%. Still for that read-out and setting: as for “548284 (antisense e[5mC]*e[5mC]*k[5mC]*d[5mC]*d[5mC]*dT*dG*dT*dA*dG*dT*dT*dG*kG*k[5mC]*eT) [compound 548284]”, the figure is 35%.

“548285 (antisense eG*e[5mC]*kT*dT*dA*d[5mC]*dT*dT*dA*d[5mC]*dA*dT*d[5mC]*k[5mC]*k[5mC]*eT) [compound 548285]”: the “% inhibition” value came out at 52%. On the same count and under the same terms, under “548286 (antisense eG*eG*kG*dA*d[5mC]*dT*dA*d[5mC]*dA*dT*dG*d[5mC]*dA*kA*kT*eA) [compound 548286]” stands 47%. For “548287 (eG*eT*k[5mC]*dA*dA*dA*dG*dA*dG*dT*dG*dT*d[5mC]*k[5mC]*kA*e[5mC]; antisense) [compound 548287]”, the “% inhibition” value worked out at 38%. On the same count and under the same terms, under “548288 (eG*eA*kA*dT*dA*dG*d[5mC]*dA*dA*dG*d[5mC]*dT*d[5mC]*k[5mC]*kA*eA; antisense) [compound 548288]” stands 64%; under “548289 (e[5mC]*eA*kT*dG*dA*dT*dA*d[5mC]*d[5mC]*dA*d[5mC]*dA*d[5mC]*k[5mC]*kA*e[5mC]; antisense) [compound 548289]”, 28%; under “548290 (eG*eA*kG*d[5mC]*dA*d[5mC]*dT*d[5mC]*dT*dT*dA*dT*dT*kA*kG*e[5mC]; antisense) [compound 548290]”, 31%. On to “548291 (e[5mC]*e[5mC]*kT*dG*dT*dT*dA*dG*dA*dG*dT*dT*dG*kG*k[5mC]*e[5mC]; antisense) [compound 548291]”, for which the “% inhibition” value came out at 35%. On the same count and under the same terms, under “548292 (eA*eG*kG*dA*d[5mC]*dA*d[5mC]*dT*dG*dT*dT*dT*d[5mC]*k[5mC]*kA*eG; antisense) [compound 548292]” stands 38%; under “548293 (eG*eT*k[5mC]*dA*d[5mC]*d[5mC]*dA*dG*dA*dA*d[5mC]*d[5mC]*dA*k[5mC]*kA*eT; antisense) [compound 548293]”, 44%. Still for that read-out and setting: as for “548294 (eG*eT*kG*dT*dG*d[5mC]*dA*d[5mC]*dT*dT*dT*d[5mC]*dT*kG*kG*eT; antisense) [compound 548294]”, the figure is 33%. Same read-out and setting: as for “548295 (e[5mC]*eT*k[5mC]*dT*dG*dA*dT*dT*dG*dG*dG*dT*d[5mC]*kA*k[5mC]*e[5mC]; antisense) [compound 548295]”, the figure is 26%; as for “548296 (eA*e[5mC]*k[5mC]*dA*dA*d[5mC]*dA*dA*d[5mC]*dT*d[5mC]*dA*dG*kG*k[5mC]*e[5mC]; antisense) [compound 548296]”, 34%. Turning to “548297 (eA*e[5mC]*kT*d[5mC]*dT*d[5mC]*dA*dA*dG*d[5mC]*dT*d[5mC]*d[5mC]*kA*k[5mC]*eG; antisense) [compound 548297]”, the “% inhibition” value stood at 32%. In the case of “548298 (eG*eG*kA*d[5mC]*dA*dA*dT*dA*dT*dG*dT*d[5mC]*dT*k[5mC]*k[5mC]*eT; antisense) [compound 548298]”, the “% inhibition” value is 0%. On to “548299 (e[5mC]*eA*kT*dT*dG*dT*dG*d[5mC]*dT*d[5mC]*dA*dA*d[5mC]*kT*kG*eA; antisense) [compound 548299]”, for which the “% inhibition” value is recorded as 35%. Still for that read-out and setting: under “548300 (eG*e[5mC]*k[5mC]*d[5mC]*dA*dT*dG*dG*dT*dG*dA*dA*dT*k[5mC]*kT*eG; antisense) [compound 548300]” stands 53%. On the same count and under the same terms, under “548301 (e[5mC]*e[5mC]*kT*dA*dG*dT*dA*d[5mC]*dA*dA*dA*dG*dT*kG*kG*e[5mC]; antisense) [compound 548301]” stands 65%; under “548302 (eG*e[5mC]*k[5mC]*dA*dT*dT*dT*dT*dA*dT*d[5mC]*d[5mC]*d[5mC]*kT*kG*eA; antisense) [compound 548302]”, 71%; under “548303 (eG*eG*kG*d[5mC]*d[5mC]*d[5mC]*d[5mC]*d[5mC]*dA*dT*dG*dT*d[5mC]*k[5mC]*kA*eT; antisense) [compound 548303]”, 0%.

The data set is the same for the next values; noted with them: Table 27; HepaRG cells, 1,000 nM antisense oligonucleotide; human PKK mRNA.
For “548305 (eG*eT*kT*d[5mC]*dT*dT*dG*d[5mC]*dT*dT*dA*dT*d[5mC]*k[5mC]*kT*e[5mC]; antisense) [compound 548305]”, the “% inhibition” value is listed as 55%. The same measure, in the same setting: under “548306 (eA*eT*kG*dT*dG*dA*d[5mC]*dA*dG*dT*d[5mC]*dA*dG*kG*kG*eA; antisense) [compound 548306]” stands 8%; under “548307 (eT*eT*k[5mC]*dT*dG*d[5mC]*dA*dA*d[5mC]*dT*dG*dA*dG*k[5mC]*k[5mC]*eT; antisense) [compound 548307]”, 6%.

Consider “548308 (eA*eA*kT*dG*dG*d[5mC]*dA*dG*dG*dT*d[5mC]*d[5mC]*dT*kG*kG*e[5mC]; antisense) [compound 548308]”, for which the “% inhibition” value was determined as 9%.
